In patent publication US4342780A, “Method of depleting endogenous monoamines” (Merrell-Toraude et Cie, priority 1981, dated 1982):

What was measured:
AADC [1] = experiment: Ex vivo AADC activity in organs of mice after repeated i.p. doses (Table II); design: species or system mice (Swiss Albino); settings: three days, 12 h after 6th dose, vs control
Protocol: (§1) The test animals (e.g. mice or rats) are given the test compound in a suitable vehicle, either orally or by injection, each day over the period of time desired. The animals are kept on a constant time cycle, and body weights are measured daily. The animals are sacrificed by decapitation 12 to 24 hours after receiving the last dose of the test compound. Control animals receive the vehicle alone.
(§2) Immediately after death, the organs (brain, heart, and kidney) are removed and homogenized either in 50 ml phosphate buffer pH 6.8 for AADC determination or in ice-cold 0.4 M HClO4 containing 0.05% (w/v) EDTA and 0.1% (w/v) sodium bisulfite for catecholamine determination. AADC activity is determined by the ^14 CO2 trapping method of J. Christenson, supra (see Example 14) using DL-[1-^14 C]-dopa as the substrate. Catecholamines are determined by centrifuging the homogenate, adding the supernatant to alumina buffered to pH 8.0-8.4 to adsorb the catecholamines, re-extracting the catecholamines from the alumina with 0.2 M HClO4 and determining the catecholamines in the extracts using known procedures, such as by reversed-phase ion-pair HPLC with electrochemical detection.
(§3) Table II, shown below, sets forth the results obtained by testing particular compounds of Formula I in the above-described procedure in mice (Swiss Albino) after i.p. administration of the compound twice daily for three days: […]

[2] = tested on: catecholamine content (norepinephrine, dopamine); experiment: Catecholamine content in organs of mice after repeated i.p. doses (Table II); assay type: in vivo, mice (Swiss Albino); settings: three days, 12 h after 6th dose, vs control
Protocol: as §1, §2, §3

[3] = Deaths in mice after repeated i.p. doses (Table II footnotes); assay type: in vivo, mice (Swiss Albino); settings: 100 mg/kg i.p. twice daily, three days; number dead of animals
Protocol: as §1, §3

AADC [4] = molecular target: T1, AADC (Sus scrofa, UniProt P80041); experiment: In vitro AADC inhibition: time of 90% inactivation (14CO2 trapping, DL-[1-14C]-dopa substrate); assay type: biochemical, hog; design: key to RATING: ++++: The relative activities of the compounds are rated by the given number of "plus" signs; +++: The relative activities of the compounds are rated by the given number of "plus" signs; 0-+: The relative activities of the compounds are rated by the given number of "plus" signs; settings: CONC. 100 μM; for TIME OF 90% INACTIVATION: pH 7.4, 37° C.; for RATING: relative activity
T1 sequence (P80041 1-486): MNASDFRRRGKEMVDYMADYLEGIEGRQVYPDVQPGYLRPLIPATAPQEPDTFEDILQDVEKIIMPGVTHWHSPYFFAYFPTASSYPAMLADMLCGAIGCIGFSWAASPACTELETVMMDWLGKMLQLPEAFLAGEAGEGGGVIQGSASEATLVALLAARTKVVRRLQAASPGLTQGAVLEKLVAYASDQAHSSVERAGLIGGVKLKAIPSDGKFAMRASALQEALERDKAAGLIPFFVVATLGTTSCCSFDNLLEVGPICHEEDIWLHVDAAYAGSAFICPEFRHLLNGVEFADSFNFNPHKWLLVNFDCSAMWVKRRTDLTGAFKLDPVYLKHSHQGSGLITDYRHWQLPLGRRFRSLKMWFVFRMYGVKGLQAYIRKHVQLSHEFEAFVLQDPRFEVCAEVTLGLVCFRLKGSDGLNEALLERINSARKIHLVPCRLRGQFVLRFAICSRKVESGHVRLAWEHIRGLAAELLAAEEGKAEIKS
Protocol: AADC can be purified from hog kidney by the general method of J. Christenson et al. Archs. Biochem. Biophys., 141, 356 (1970) and G. Lancaster et al., Can. J. Biochem., 50, 791 (1972), and the specific activity of the enzyme is determined by the ^14 CO2 trapping method using DL-[1-^14 C]-dopa as the substrate (see Christenson et al.). One unit of activity is defined as the total amount of enzyme which produces 1 n mol of CO2 per minute, with DL-[1-^14 C]-dopa as substrate.
To 100 μl of 50 mM-phosphate buffer pH 7.4 containing 100 mM-mercapto-ethanol are added 5 μl of an aqueous solution containing the test compound at the desired concentration and 50 μl of an aqueous solution containing 2 units of AADC. The mixture is incubated at 37° C. and 20 μl aliquots are removed at various times. The AADC activity remaining in each aliquot is measured by the CO2 trapping method of Christenson.
The relative activities of the compounds are rated by the given number of "plus" signs.

[5] = tested on: endogenous catecholamine and 5-HT levels; experiment: Effect on endogenous catecholamine and 5-HT levels in brain and heart (general statement); assay type: in vivo
AADC [6] = experiment: Ex vivo AADC activity in brain of rats after repeated i.p. doses (Table II, footnote c); settings: 100 mg/kg i.p. twice daily, three days, 12 h after 6th dose, vs control
Protocol: as §1, §2, §3

[7] = tested on: catecholamine content (norepinephrine, dopamine); experiment: Catecholamine content in organs of rats after repeated i.p. doses (Table II, footnote c); assay type: in vivo; settings: 100 mg/kg i.p. twice daily, three days, 12 h after 6th dose, vs control
Protocol: as §1, §2, §3

Row | SMILES | % CHANGE AADC Brain (AADC [1]; 10 mg/kg i.p. twice daily) | % CHANGE AADC Kidney (AADC [1]; 10 mg/kg i.p. twice daily) | % CHANGE AADC Brain (AADC [1]; 100 mg/kg i.p. twice daily) | % CHANGE AADC Kidney (AADC [1]; 100 mg/kg i.p. twice daily) | % CHANGE NOREPINEPHRINE Brain ([2]; 10 mg/kg i.p. twice daily, * not significant) | % CHANGE NOREPINEPHRINE Heart ([2]; 10 mg/kg i.p. twice daily, * not significant (-25*, -7*)) | % CHANGE DOPAMINE Brain ([2]; 10 mg/kg i.p. twice daily, * not significant (-25*, -9*)) | % CHANGE NOREPINEPHRINE Brain ([2]; 100 mg/kg i.p. twice daily) | % CHANGE NOREPINEPHRINE Heart ([2]; 100 mg/kg i.p. twice daily) | % CHANGE DOPAMINE Brain ([2]; 100 mg/kg i.p. twice daily, * not significant (-35*)) | dead [3] | TIME OF 90% INACTIVATION (AADC [4]) | RATING (AADC [4]) | selectivity (brain catecholamines lowered, not heart, not brain 5-HT) [5] | % CHANGE AADC Brain (AADC [6]) | % CHANGE DOPAMINE Brain [7] | % CHANGE NOREPINEPHRINE Brain [7] | % CHANGE NOREPINEPHRINE Heart [7]
1 | Cc1ccc(CC(N)(CF)C(=O)O)c(O)c1 (centres unmarked) [2-OH4-methyl phenyl, 2-amino-2-fluoromethyl-3-(2-hydroxy-4-methylphenyl)propionic acid] | -39% | -70% | -99% | -99.5% | 0% | -7% | -9% | -69% | -75% | -35% | 2/5 | 1 min | +++ |  |  |  |  | 
2 | NC(CF)(Cc1ccc(O)cc1)C(=O)O (centres unmarked) [Example 4-OH-phenyl, 2-Amino-2-fluoromethyl-3-(4-hydroxyphenyl)propionic acid] |  |  |  |  |  |  |  |  |  |  |  | > 300 min | 0-+ | not found | -88% | -88% | -54% | -45%
